How the values were obtained:
[1] = system: β-Glucosidase derived from A. niger; assay: Reactivity toward various isoflavone glycosides (HPLC); assay type: biochemical, Aspergillus niger; design: glucoside / aglycon: unit not given here; settings: 55 °C, pH 4.0
Procedure, shortened: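 Aglycone liberation was measured by reversed-phase HPLC (260 nm, calibration-curve quantitation) after ethanol extraction at 0, 1, 3 and 6 h. Reactions ran at 55° C, pH 4.0 (20 mM acetate), with each glycoside (from 2 mM methanol stock) and 0.75 AU/mL enzyme solution.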

[2] = system: Crude diglycosidase; assay: Examination of substrate concentration in the conversion into isoflavone aglycons by diglycosidase using soybean materials; assay type: biochemical, Penicillium multicolor IAM7153;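 as to Decomposition efficiency: ratio of each glycoside/aglycon within its isoflavone family: percent of the isoflavone family total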
Procedure, shortened: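 Reaction at 55° C, shaken, pH 4.0 (20 mM acetate), using crude diglycosidase from a 1.88 AU/mL enzyme solution on soy flour, soymilk, defatted soybean or soy protein concentrate at 2, 5, 10, 20 or 30% (w/v). Isoflavone aglycons quantified by HPLC of ethanol extracts at 0, 1, 3, 6 h.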

For `O=c1c(-c2ccc(O)cc2)coc2cc(O[C@@H]3O[C@H](CO)[C@@H](O)[C@H](O)[C@H]3O)ccc12` [daidzin], the “reactivity of β-glucosidase derived from Aspergillus niger (in words)” value [1] was “act well”, the aglycon ([1]; Reaction time 0 h) was 0 and the glucoside ([1]; Reaction time 0 h) was 100. It also gave an aglycon ([1]; Reaction time 1 h) of 100, a glucoside ([1]; Reaction time 1 h) of 0 and an aglycon ([1]; Reaction time 3 h) of 100. For the same molecule, the glucoside ([1]; Reaction time 3 h) was 0, the aglycon ([1]; Reaction time 6 h) was 100 and the glucoside ([1]; Reaction time 6 h) was 0. For the same molecule, the “Decomposition efficiency: ratio of each glycoside/aglycon within its isoflavone family” value ([2]; roasted soy flour, substrate concentration 2%, heat treatment of enzyme no, reaction time 0 h) was 30.2%, the “Decomposition efficiency: ratio of each glycoside/aglycon within its isoflavone family” value ([2]; roasted soy flour, substrate concentration 2%, heat treatment of enzyme no, reaction time 1 h) was “not detected” and the “Decomposition efficiency: ratio of each glycoside/aglycon within its isoflavone family” value ([2]; roasted soy flour, substrate concentration 2%, heat treatment of enzyme no, reaction time 3 h) was “not detected”. The “Decomposition efficiency: ratio of each glycoside/aglycon within its isoflavone family” value ([2]; roasted soy flour, substrate concentration 2%, heat treatment of enzyme no, reaction time 6 h) was “not detected”, the “Decomposition efficiency: ratio of each glycoside/aglycon within its isoflavone family” value ([2]; roasted soy flour, substrate concentration 2%, heat treatment of enzyme yes, reaction time 6 h) was 46.6% and the “Decomposition efficiency: ratio of each glycoside/aglycon within its isoflavone family” value ([2]; roasted soy flour, substrate concentration 5%, heat treatment of enzyme no, reaction time 0 h) was 46.1%. The “Decomposition efficiency: ratio of each glycoside/aglycon within its isoflavone family” value ([2]; roasted soy flour, substrate concentration 5%, heat treatment of enzyme no, reaction time 1 h) was “not detected”, the “Decomposition efficiency: ratio of each glycoside/aglycon within its isoflavone family” value ([2]; roasted soy flour, substrate concentration 5%, heat treatment of enzyme no, reaction time 3 h) was “not detected” and the “Decomposition efficiency: ratio of each glycoside/aglycon within its isoflavone family” value ([2]; roasted soy flour, substrate concentration 5%, heat treatment of enzyme no, reaction time 6 h) was “not detected”. The “Decomposition efficiency: ratio of each glycoside/aglycon within its isoflavone family” value ([2]; roasted soy flour, substrate concentration 5%, heat treatment of enzyme yes, reaction time 6 h) was 46.1%, the “Decomposition efficiency: ratio of each glycoside/aglycon within its isoflavone family” value ([2]; roasted soy flour, substrate concentration 10%, heat treatment of enzyme no, reaction time 0 h) was 60.1% and the “Decomposition efficiency: ratio of each glycoside/aglycon within its isoflavone family” value ([2]; roasted soy flour, substrate concentration 10%, heat treatment of enzyme no, reaction time 1 h) was “not detected”. For the same molecule, the “Decomposition efficiency: ratio of each glycoside/aglycon within its isoflavone family” value ([2]; roasted soy flour, substrate concentration 10%, heat treatment of enzyme no, reaction time 3 h) was “not detected”, the “Decomposition efficiency: ratio of each glycoside/aglycon within its isoflavone family” value ([2]; roasted soy flour, substrate concentration 10%, heat treatment of enzyme no, reaction time 6 h) was “not detected” and the “Decomposition efficiency: ratio of each glycoside/aglycon within its isoflavone family” value ([2]; roasted soy flour, substrate concentration 10%, heat treatment of enzyme yes, reaction time 6 h) was 47.5%. The “Decomposition efficiency: ratio of each glycoside/aglycon within its isoflavone family” value ([2]; roasted soy flour, substrate concentration 20%, heat treatment of enzyme no, reaction time 0 h) was 50.3%, the “Decomposition efficiency: ratio of each glycoside/aglycon within its isoflavone family” value ([2]; roasted soy flour, substrate concentration 20%, heat treatment of enzyme no, reaction time 1 h) was “not detected” and the “Decomposition efficiency: ratio of each glycoside/aglycon within its isoflavone family” value ([2]; roasted soy flour, substrate concentration 20%, heat treatment of enzyme no, reaction time 3 h) was “not detected”. The “Decomposition efficiency: ratio of each glycoside/aglycon within its isoflavone family” value ([2]; roasted soy flour, substrate concentration 20%, heat treatment of enzyme no, reaction time 6 h) was “not detected”, the “Decomposition efficiency: ratio of each glycoside/aglycon within its isoflavone family” value ([2]; roasted soy flour, substrate concentration 20%, heat treatment of enzyme yes, reaction time 6 h) was 48.6% and the “Decomposition efficiency: ratio of each glycoside/aglycon within its isoflavone family” value ([2]; roasted soy flour, substrate concentration 30%, heat treatment of enzyme no, reaction time 0 h) was 47.7%. For the same molecule, the “Decomposition efficiency: ratio of each glycoside/aglycon within its isoflavone family” value ([2]; roasted soy flour, substrate concentration 30%, heat treatment of enzyme no, reaction time 1 h) was “not detected”, the “Decomposition efficiency: ratio of each glycoside/aglycon within its isoflavone family” value ([2]; roasted soy flour, substrate concentration 30%, heat treatment of enzyme no, reaction time 3 h) was “not detected” and the “Decomposition efficiency: ratio of each glycoside/aglycon within its isoflavone family” value ([2]; roasted soy flour, substrate concentration 30%, heat treatment of enzyme no, reaction time 6 h) was “not detected”. For the same molecule, the “Decomposition efficiency: ratio of each glycoside/aglycon within its isoflavone family” value ([2]; roasted soy flour, substrate concentration 30%, heat treatment of enzyme yes, reaction time 6 h) was 49.0%, the “Decomposition efficiency: ratio of each glycoside/aglycon within its isoflavone family” value ([2]; soymilk, substrate concentration 2%, heat treatment of enzyme no, reaction time 0 h) was 53.5% and the “Decomposition efficiency: ratio of each glycoside/aglycon within its isoflavone family” value ([2]; soymilk, substrate concentration 2%, heat treatment of enzyme no, reaction time 1 h) was “not detected”. For the same molecule, the “Decomposition efficiency: ratio of each glycoside/aglycon within its isoflavone family” value ([2]; soymilk, substrate concentration 2%, heat treatment of enzyme no, reaction time 3 h) was “not detected”, the “Decomposition efficiency: ratio of each glycoside/aglycon within its isoflavone family” value ([2]; soymilk, substrate concentration 2%, heat treatment of enzyme no, reaction time 6 h) was “not detected” and the “Decomposition efficiency: ratio of each glycoside/aglycon within its isoflavone family” value ([2]; soymilk, substrate concentration 2%, heat treatment of enzyme yes, reaction time 6 h) was 39.8%. The “Decomposition efficiency: ratio of each glycoside/aglycon within its isoflavone family” value ([2]; soymilk, substrate concentration 5%, heat treatment of enzyme no, reaction time 0 h) was 34.2%, the “Decomposition efficiency: ratio of each glycoside/aglycon within its isoflavone family” value ([2]; soymilk, substrate concentration 5%, heat treatment of enzyme no, reaction time 1 h) was “not detected” and the “Decomposition efficiency: ratio of each glycoside/aglycon within its isoflavone family” value ([2]; soymilk, substrate concentration 5%, heat treatment of enzyme no, reaction time 3 h) was “not detected”. For the same molecule, the “Decomposition efficiency: ratio of each glycoside/aglycon within its isoflavone family” value ([2]; soymilk, substrate concentration 5%, heat treatment of enzyme no, reaction time 6 h) was “not detected”, the “Decomposition efficiency: ratio of each glycoside/aglycon within its isoflavone family” value ([2]; soymilk, substrate concentration 5%, heat treatment of enzyme yes, reaction time 6 h) was 40.5% and the “Decomposition efficiency: ratio of each glycoside/aglycon within its isoflavone family” value ([2]; soymilk, substrate concentration 10%, heat treatment of enzyme no, reaction time 0 h) was 34.6%. For the same molecule, the “Decomposition efficiency: ratio of each glycoside/aglycon within its isoflavone family” value ([2]; soymilk, substrate concentration 10%, heat treatment of enzyme no, reaction time 1 h) was “not detected”, the “Decomposition efficiency: ratio of each glycoside/aglycon within its isoflavone family” value ([2]; soymilk, substrate concentration 10%, heat treatment of enzyme no, reaction time 3 h) was “not detected” and the “Decomposition efficiency: ratio of each glycoside/aglycon within its isoflavone family” value ([2]; soymilk, substrate concentration 10%, heat treatment of enzyme no, reaction time 6 h) was “not detected”. The “Decomposition efficiency: ratio of each glycoside/aglycon within its isoflavone family” value ([2]; soymilk, substrate concentration 10%, heat treatment of enzyme yes, reaction time 6 h) was 39.4%, the “Decomposition efficiency: ratio of each glycoside/aglycon within its isoflavone family” value ([2]; soymilk, substrate concentration 20%, heat treatment of enzyme no, reaction time 0 h) was 34.1% and the “Decomposition efficiency: ratio of each glycoside/aglycon within its isoflavone family” value ([2]; soymilk, substrate concentration 20%, heat treatment of enzyme no, reaction time 1 h) was “not detected”. For the same molecule, the “Decomposition efficiency: ratio of each glycoside/aglycon within its isoflavone family” value ([2]; soymilk, substrate concentration 20%, heat treatment of enzyme no, reaction time 3 h) was “not detected”, the “Decomposition efficiency: ratio of each glycoside/aglycon within its isoflavone family” value ([2]; soymilk, substrate concentration 20%, heat treatment of enzyme no, reaction time 6 h) was “not detected” and the “Decomposition efficiency: ratio of each glycoside/aglycon within its isoflavone family” value ([2]; soymilk, substrate concentration 20%, heat treatment of enzyme yes, reaction time 6 h) was 39.8%. The “Decomposition efficiency: ratio of each glycoside/aglycon within its isoflavone family” value ([2]; soymilk, substrate concentration 30%, heat treatment of enzyme no, reaction time 0 h) was 34.9%, the “Decomposition efficiency: ratio of each glycoside/aglycon within its isoflavone family” value ([2]; soymilk, substrate concentration 30%, heat treatment of enzyme no, reaction time 1 h) was “not detected” and the “Decomposition efficiency: ratio of each glycoside/aglycon within its isoflavone family” value ([2]; soymilk, substrate concentration 30%, heat treatment of enzyme no, reaction time 3 h) was “not detected”. The “Decomposition efficiency: ratio of each glycoside/aglycon within its isoflavone family” value ([2]; soymilk, substrate concentration 30%, heat treatment of enzyme no, reaction time 6 h) was “not detected”, the “Decomposition efficiency: ratio of each glycoside/aglycon within its isoflavone family” value ([2]; soymilk, substrate concentration 30%, heat treatment of enzyme yes, reaction time 6 h) was 40.0% and the “Decomposition efficiency of daidzin family in defatted soybean” value ([2]; substrate concentration 2%, heat treatment of enzyme no, reaction time 0 h) was 42.3. For the same molecule, the “Decomposition efficiency of daidzin family in defatted soybean” value ([2]; substrate concentration 2%, heat treatment of enzyme no, reaction time 1 h) was “not detected”, the “Decomposition efficiency of daidzin family in defatted soybean” value ([2]; substrate concentration 2%, heat treatment of enzyme no, reaction time 3 h) was “not detected” and the “Decomposition efficiency of daidzin family in defatted soybean” value ([2]; substrate concentration 2%, heat treatment of enzyme no, reaction time 6 h) was “not detected”. The “Decomposition efficiency of daidzin family in defatted soybean” value ([2]; substrate concentration 2%, heat treatment of enzyme yes, reaction time 6 h) was 43.7, the “Decomposition efficiency of daidzin family in defatted soybean” value ([2]; substrate concentration 5%, heat treatment of enzyme no, reaction time 0 h) was 44.0 and the “Decomposition efficiency of daidzin family in defatted soybean” value ([2]; substrate concentration 5%, heat treatment of enzyme no, reaction time 1 h) was “not detected”. For the same molecule, the “Decomposition efficiency of daidzin family in defatted soybean” value ([2]; substrate concentration 5%, heat treatment of enzyme no, reaction time 3 h) was “not detected”, the “Decomposition efficiency of daidzin family in defatted soybean” value ([2]; substrate concentration 5%, heat treatment of enzyme no, reaction time 6 h) was “not detected” and the “Decomposition efficiency of daidzin family in defatted soybean” value ([2]; substrate concentration 5%, heat treatment of enzyme yes, reaction time 6 h) was 45.8. For the same molecule, the “Decomposition efficiency of daidzin family in defatted soybean” value ([2]; substrate concentration 10%, heat treatment of enzyme no, reaction time 0 h) was 45.6, the “Decomposition efficiency of daidzin family in defatted soybean” value ([2]; substrate concentration 10%, heat treatment of enzyme no, reaction time 1 h) was “not detected” and the “Decomposition efficiency of daidzin family in defatted soybean” value ([2]; substrate concentration 10%, heat treatment of enzyme no, reaction time 3 h) was “not detected”. For the same molecule, the “Decomposition efficiency of daidzin family in defatted soybean” value ([2]; substrate concentration 10%, heat treatment of enzyme no, reaction time 6 h) was “not detected” and the “Decomposition efficiency of daidzin family in defatted soybean” value ([2]; substrate concentration 10%, heat treatment of enzyme yes, reaction time 6 h) was 47.5.
